What all share (type): cell-based, human
Test [1] relates to motor neurons induced to differentiate from iPS cells derived from ALS patients (FUS-ALS) having a mutation in FUS. Kind of test: Ectopic localization of FUS protein in the cytoplasm, FUS-ALS motor neurons. An excerpt:
Therefore, on day 40 from the start of differentiation induction, each differentiation-induced motor neuron in Example I-1 was immunostained and the localization of FUS protein in the cytoplasm was examined.
(§1) Using the differentiation-induced motor neurons in Example I-1, drugs which cause the ALS phenotype to be restored were screened from existing drug libraries with the neurite length, ectopic localization of FUS protein, stress granule formation, LDH leakage ratio, CV-caspase 3-positive ratio, phosphorylated TDP-43 protein inclusion formation, and the like as indices.
(§2) As a result of the screening, ropinirole was found as a promising therapeutic agent for ALS. Tables 5 and 6 show the improvement ratio (%) in the ALS phenotype due to adding ropinirole to the medium. Here, ropinirole was added to the medium on days 35 to 40 from the start of the differentiation induction of each iPS cell. Here, it is assumed that days 35 to 40 from the start of differentiation induction correspond to the early stage of the ALS disease.
(§3) The improvement ratio (%) of the ALS phenotype was calculated by Equation (1).
(§4) [formula] [In Equation (1), A represents a measurement value of motor neurons induced to differentiate from iPS cells derived from ALS patients in the absence of ropinirole, and B represents a measurement value of motor neurons induced to differentiate from iPS cells derived from ALS patients in the presence of ropinirole, and C represents a measurement value of motor neurons induced to differentiate from iPS cells derived from healthy subjects in the absence of ropinirole.]
(§5) Subsequently, in the same manner as above, the efficacy in cases of administering lower concentrations of ropinirole was evaluated.
(§6) Each drug was added to the medium at a final concentration of 10 μM.

For test [2], the system named is motor neurons induced to differentiate from iPS cells derived from ALS patients (TDP-43-ALS) having a mutation in TDP-43. Kind of test: Neurite length, TDP-43-ALS motor neurons (screening, Example I-8). The protocol: For each differentiation-induced motor neuron in Example I-1, the changes over time in the neurite length were measured. A Bio station CT (Nikon Corp.) was used to measure the neurite length over time. FIG. 1 is a graph showing measurement results of changes over time in the neurite length. The vertical axis represents neurite length (relative value), and the horizontal axis represents the number of days of culturing from the start of differentiation induction.
as §1, §2, §3, §4, §5, §6

The test system is the same in test [3]. Kind of test: LDH leakage ratio, TDP-43-ALS motor neurons. As to the method:
The leakage amount of LDH into the medium is an indicator of cytotoxicity. For measurement of the LDH leakage ratio, a commercially available kit (model “LDH Cytotoxicity Detection Kit”, Takara Bio Inc.) was used.
Here, ropinirole was added to the medium on days 35 to 40 from the start of the differentiation induction of each iPS cell. Here, it is assumed that days 35 to 40 from the start of differentiation induction correspond to the early stage of the ALS disease.
as §3, §4, §5, §6
Background: LDH in the medium is a marker of cell lysis.

Test [4] deals with motor neurons induced to differentiate from iPS cells derived from SALS patients. Kind of test: Neurite length, sporadic ALS model (Example III-1). The conditions noted are these: final concentration 1 μM, days 35 to 40, measured on day 40, FIG. 10. An excerpt:
(§7) In the same manner as in Example I-1, iPS cells derived from sporadic ALS (may be referred to below as “SALS”) patients were differentiated into motor neurons. All the iPS cells used were derived from dermal fibroblasts. Below, each differentiated motor neuron is identified by the patient number from whom the neuron was derived.
(§8) In the same manner as in Example II-1, iPS cells derived from sporadic ALS (SALS) patients were induced to differentiate into motor neurons, and then ropinirole with a final concentration of 1 μM was added to the medium. More specifically, for the period of days 35 to 40 from the start of differentiation induction, ropinirole having a final concentration of 1 μM was added to the medium. In addition, a group for which ropinirole was not added to the medium was prepared as a control. In addition, for comparison, iPS cells derived from healthy subjects were differentiated into motor neurons in the same manner as in Example I-1. No ropinirole was added to the medium of these motor neurons. As the iPS cells derived from a healthy subject, the same cells as used in Example I-1 were used.
Subsequently, on day 40 from the start of differentiation induction, the neurite length was measured for each motor neuron in the same manner as in Example I-2.
FIG. 10 is a graph showing measurement results of the neurite length of each motor neuron. […]

Test [5] shares this test system. Kind of test: CV caspase 3-positive ratio, sporadic ALS model (Example III-2). The conditions noted are these: final concentration 1 μM, days 35 to 40, measured on day 40, FIG. 11.
Text: as §7, §8
Subsequently, on day 40 from the start of differentiation induction, the ratio of CV caspase 3-positive neurons was measured for each motor neuron in the same manner as in Example I-3.
FIG. 11 is a graph showing the measurement results of the ratio of CV caspase 3-positive neurons. […]

Test [6] has the same test system. Kind of test: Stress granules, sporadic ALS model (Example III-4). Conditions: final concentration 1 μM, days 35 to 40, measured on day 40, FIG. 13.
Text: as §7
as §8, with “and” for “and then”
Subsequently, on day 40 from the start of differentiation induction, the number of stress granules was measured for each motor neuron in the same manner as in Example I-7.
FIG. 13 is a graph showing the measurement result of the number of stress granules. […]

Where [7] appears, read: final concentration 0.1 μM, added days 35 to 40.
[8] abbreviates: final concentration 1 μM, added days 35 to 40.
Where [9] appears, read: final concentration 10 μM, added days 35 to 40.

From patent US12678423B2, “Therapeutic agent for amyotrophic lateral sclerosis and composition for treatment” (KEIO UNIVERSITY, priority 2016, dated 2026) come the findings set out here.

The structures appear in SMILES notation.

Take `CCCN(CCC)CCc1cccc2c1CC(=O)N2` [Ropinirole, 4-(2-di-n-propylaminoethyl)-2(3H)-indole]: the “Ectopic localization of FUS protein improvement ratio” value in test [1] (final concentration 0.1 nM) came out at 20.2%; in test [1] (final concentration 1 nM), 45.8%; in test [1] (final concentration 10 nM) it was 51.2%; in test [1] (setting [7]), 55.8%; in test [1] (setting [8]) it was 54.3%; in test [1] (setting [9]), 74.4%. Also, the “Neurite length improvement ratio” value in test [2] (final concentration 0.1 nM) was 12.1%; in test [2] (final concentration 1 nM), 49.4%; in test [2] (final concentration 10 nM), 52.3%; in test [2] (setting [7]), 50.4%; in test [2] (setting [8]), 75.3%; in test [2] (setting [9]), 77.2%. Further, the “LDH leakage ratio improvement ratio” value in test [3] (final concentration 0.1 nM) stood at 10.2%; in test [3] (final concentration 1 nM) it was 55.2%; in test [3] (final concentration 10 nM), 56.6%; in test [3] (setting [7]) it was 58.3%; in test [3] (setting [8]), 78.1%; in test [3] (setting [9]), 82.4%. In addition, in test [4], the Neurite length reduction result is given as “significantly suppressed”. Besides, the “Ratio of CV caspase 3-positive neurons” value in test [5] is “significantly reduced”. Further, the “Number of stress granules” value in test [6] was “significantly decreased”.
